ChEMBL document CHEMBL5715260, “Selectivity Literature for EUbOPEN Chemogenomic Library” (2024)

How the values were obtained:
[1] = molecular target: Nuclear receptor subfamily 4immunitygroup A member 1 (Homo sapiens) (UniProt P22736); experiment: Selectivity interaction (Reporter gene assay) EUB0002358a NR4A1; design: recommended concentration 10 uM
[2] = molecular target: T1, Nuclear receptor subfamily 2 group C member 1 (Homo sapiens) (UniProt P13056); experiment: Selectivity interaction (Reporter gene assay) EUB0002358a NR2C1; design: recommended concentration 10 uM
T1 sequence (whole entry): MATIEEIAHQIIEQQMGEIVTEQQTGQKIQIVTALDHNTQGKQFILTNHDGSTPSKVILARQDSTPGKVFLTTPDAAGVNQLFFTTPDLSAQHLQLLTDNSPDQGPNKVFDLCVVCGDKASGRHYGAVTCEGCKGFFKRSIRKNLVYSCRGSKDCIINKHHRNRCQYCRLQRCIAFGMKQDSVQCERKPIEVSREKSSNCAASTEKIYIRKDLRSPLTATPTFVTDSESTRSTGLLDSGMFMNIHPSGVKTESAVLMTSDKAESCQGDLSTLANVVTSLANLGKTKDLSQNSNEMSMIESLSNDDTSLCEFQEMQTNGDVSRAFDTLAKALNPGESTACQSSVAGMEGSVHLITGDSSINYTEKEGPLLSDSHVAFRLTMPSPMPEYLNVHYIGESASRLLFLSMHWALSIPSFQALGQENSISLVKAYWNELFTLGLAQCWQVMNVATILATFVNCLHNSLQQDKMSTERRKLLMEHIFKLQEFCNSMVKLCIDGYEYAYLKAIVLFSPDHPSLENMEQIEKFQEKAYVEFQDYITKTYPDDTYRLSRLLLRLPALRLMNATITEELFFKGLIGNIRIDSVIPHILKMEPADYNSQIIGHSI

[3] = molecular target: T2, Alpha trans-inducing protein (Human alphaherpesvirus 1) (UniProt A0A5J6DW59); experiment: Selectivity interaction (Reporter gene assay) EUB0002358a UL48; design: recommended concentration 10 uM
[4] = molecular target: Steroidogenic factor 1 (Homo sapiens) (UniProt Q13285); experiment: Selectivity interaction (Reporter gene assay) EUB0002358a NR5A1; design: recommended concentration 10 uM
[5] = molecular target: T3, Retinoic acid receptor RXR-alpha (Homo sapiens) (UniProt P19793); experiment: Selectivity interaction (Reporter gene assay) EUB0002358a RXRA; design: recommended concentration 10 uM; settings: reference bexarotene 1 uM, Selectivity number of off-targets 0.0, Selectivity number of targets 1.0, Source Knowledge inhouse
T3 sequence (whole entry): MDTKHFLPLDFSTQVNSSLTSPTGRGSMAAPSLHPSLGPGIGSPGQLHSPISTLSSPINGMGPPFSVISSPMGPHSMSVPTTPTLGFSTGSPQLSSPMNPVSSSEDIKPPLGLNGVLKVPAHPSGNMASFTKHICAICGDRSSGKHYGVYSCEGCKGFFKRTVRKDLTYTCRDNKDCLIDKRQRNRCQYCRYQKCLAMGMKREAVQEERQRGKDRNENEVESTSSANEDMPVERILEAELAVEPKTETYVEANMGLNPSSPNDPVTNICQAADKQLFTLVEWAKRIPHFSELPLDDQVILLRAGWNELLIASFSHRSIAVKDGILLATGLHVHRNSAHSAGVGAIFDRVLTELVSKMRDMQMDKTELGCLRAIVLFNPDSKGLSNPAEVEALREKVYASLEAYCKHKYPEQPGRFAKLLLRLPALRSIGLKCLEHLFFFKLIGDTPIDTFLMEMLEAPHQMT

[6] = molecular target: T4, Hepatocyte nuclear factor 4-alpha (Homo sapiens) (UniProt P41235); experiment: Selectivity interaction (Reporter gene assay) EUB0002358a HNF4A; design: recommended concentration 10 uM
T4 sequence (whole entry): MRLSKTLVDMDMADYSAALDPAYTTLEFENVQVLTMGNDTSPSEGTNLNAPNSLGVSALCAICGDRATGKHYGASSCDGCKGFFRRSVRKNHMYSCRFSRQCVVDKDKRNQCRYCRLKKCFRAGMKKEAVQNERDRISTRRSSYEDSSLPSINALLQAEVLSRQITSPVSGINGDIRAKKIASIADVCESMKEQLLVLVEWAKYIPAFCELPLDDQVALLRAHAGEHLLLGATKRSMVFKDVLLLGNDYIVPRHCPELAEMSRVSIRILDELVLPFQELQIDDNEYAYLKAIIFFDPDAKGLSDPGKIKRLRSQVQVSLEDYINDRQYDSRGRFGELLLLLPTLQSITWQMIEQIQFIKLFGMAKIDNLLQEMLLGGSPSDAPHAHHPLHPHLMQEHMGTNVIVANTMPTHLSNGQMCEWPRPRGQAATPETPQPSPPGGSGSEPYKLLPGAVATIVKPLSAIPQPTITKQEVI

[7] = molecular target: Nuclear receptor subfamily 2 group E member 1 (Homo sapiens) (UniProt Q9Y466); experiment: Selectivity interaction (Reporter gene assay) EUB0002358a NR2E1; design: recommended concentration 10 uM
[8] = molecular target: T4, Hepatocyte nuclear factor 4-alpha (Homo sapiens); experiment: Selectivity interaction (Reporter gene assay) EUB0002359a HNF4A; design: recommended concentration 1 uM
[9] = molecular target: Nuclear receptor subfamily 2 group E member 1 (Homo sapiens) (UniProt Q9Y466); experiment: Selectivity interaction (Reporter gene assay) EUB0002359a NR2E1; design: recommended concentration 1 uM
[10] = molecular target: T2, Alpha trans-inducing protein (Human alphaherpesvirus 1); experiment: Selectivity interaction (Reporter gene assay) EUB0002359a UL48; design: recommended concentration 1 uM
[11] = molecular target: T1, Nuclear receptor subfamily 2 group C member 1 (Homo sapiens); experiment: Selectivity interaction (Reporter gene assay) EUB0002359a NR2C1; design: recommended concentration 1 uM
[12] = molecular target: Nuclear receptor subfamily 4immunitygroup A member 1 (Homo sapiens) (UniProt P22736); experiment: Selectivity interaction (Reporter gene assay) EUB0002359a NR4A1; design: recommended concentration 1 uM
[13] = molecular target: T3, Retinoic acid receptor RXR-alpha (Homo sapiens); experiment: Selectivity interaction (Reporter gene assay) EUB0002359a RXRA; design: recommended concentration 1 uM; settings: reference bexarotene 1 uM, Selectivity number of off-targets 0.0, Selectivity number of targets 1.0, Source Knowledge inhouse
[14] = molecular target: Steroidogenic factor 1 (Homo sapiens) (UniProt Q13285); experiment: Selectivity interaction (Reporter gene assay) EUB0002359a NR5A1; design: recommended concentration 1 uM
[15] = molecular target: Bromodomain and PHD finger-containing protein 3 (Homo sapiens) (UniProt Q9ULD4); settings: at 1 µM
[16] = molecular target: Bromodomain-containing protein 1 (Homo sapiens) (UniProt O95696); settings: at 1 µM
[17] = molecular target: Lysine-specific histone demethylase 2 (Homo sapiens, UniProt Q8NB78); experiment: Selectivity interaction (Proteomics) EUB0000269cCl KDM1B/LSD2; design: recommended concentration 1 uM
[18] = molecular target: Bromodomain-containing protein 4 (Homo sapiens, UniProt O60885); experiment: Selectivity interaction (Proteomics) EUB0000269cCl BRD4; design: recommended concentration 1 uM

T2 sequence (A0A5J6DW59 as listed by the source): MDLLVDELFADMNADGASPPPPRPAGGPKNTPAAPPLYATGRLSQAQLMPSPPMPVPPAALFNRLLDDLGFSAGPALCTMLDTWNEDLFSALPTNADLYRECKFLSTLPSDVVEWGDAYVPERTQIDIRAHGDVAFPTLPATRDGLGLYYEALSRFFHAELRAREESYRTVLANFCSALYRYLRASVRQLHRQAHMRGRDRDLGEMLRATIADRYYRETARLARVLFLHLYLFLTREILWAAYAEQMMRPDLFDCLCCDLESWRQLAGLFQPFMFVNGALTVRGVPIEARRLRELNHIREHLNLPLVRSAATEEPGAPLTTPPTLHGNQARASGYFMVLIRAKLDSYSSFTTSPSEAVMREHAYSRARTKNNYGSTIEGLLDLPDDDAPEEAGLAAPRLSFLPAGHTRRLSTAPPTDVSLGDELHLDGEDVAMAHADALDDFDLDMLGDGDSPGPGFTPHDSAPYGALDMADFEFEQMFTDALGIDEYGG
Sequence of Nuclear receptor subfamily 2 group E member 1 (Homo sapiens) (Q9Y466 whole entry): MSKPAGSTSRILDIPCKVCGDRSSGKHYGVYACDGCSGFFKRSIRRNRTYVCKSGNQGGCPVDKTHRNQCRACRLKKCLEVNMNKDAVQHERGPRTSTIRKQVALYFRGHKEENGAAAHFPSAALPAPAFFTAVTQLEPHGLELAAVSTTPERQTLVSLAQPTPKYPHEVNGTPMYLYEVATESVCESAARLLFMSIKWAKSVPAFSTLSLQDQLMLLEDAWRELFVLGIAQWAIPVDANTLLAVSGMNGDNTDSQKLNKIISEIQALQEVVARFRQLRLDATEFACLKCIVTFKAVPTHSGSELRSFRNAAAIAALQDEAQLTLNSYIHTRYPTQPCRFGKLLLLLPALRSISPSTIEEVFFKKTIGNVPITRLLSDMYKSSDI
Sequence of Nuclear receptor subfamily 4immunitygroup A member 1 (Homo sapiens) (P22736 whole entry): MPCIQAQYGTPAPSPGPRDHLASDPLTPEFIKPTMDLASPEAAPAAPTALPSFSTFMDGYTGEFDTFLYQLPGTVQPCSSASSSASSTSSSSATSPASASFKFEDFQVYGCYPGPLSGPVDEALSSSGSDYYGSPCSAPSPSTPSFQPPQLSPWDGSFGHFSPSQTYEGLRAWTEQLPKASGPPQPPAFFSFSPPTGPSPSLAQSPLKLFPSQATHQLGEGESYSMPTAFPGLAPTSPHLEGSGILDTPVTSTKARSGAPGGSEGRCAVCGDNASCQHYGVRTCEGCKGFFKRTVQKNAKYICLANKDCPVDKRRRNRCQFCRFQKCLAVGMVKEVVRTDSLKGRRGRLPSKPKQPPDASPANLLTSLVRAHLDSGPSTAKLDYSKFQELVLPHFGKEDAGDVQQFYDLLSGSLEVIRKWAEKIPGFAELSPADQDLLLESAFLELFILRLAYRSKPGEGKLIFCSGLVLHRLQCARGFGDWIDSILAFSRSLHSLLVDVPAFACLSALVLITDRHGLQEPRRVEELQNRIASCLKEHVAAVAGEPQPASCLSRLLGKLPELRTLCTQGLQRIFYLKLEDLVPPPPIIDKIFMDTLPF
Sequence of Steroidogenic factor 1 (Homo sapiens) (Q13285 whole entry): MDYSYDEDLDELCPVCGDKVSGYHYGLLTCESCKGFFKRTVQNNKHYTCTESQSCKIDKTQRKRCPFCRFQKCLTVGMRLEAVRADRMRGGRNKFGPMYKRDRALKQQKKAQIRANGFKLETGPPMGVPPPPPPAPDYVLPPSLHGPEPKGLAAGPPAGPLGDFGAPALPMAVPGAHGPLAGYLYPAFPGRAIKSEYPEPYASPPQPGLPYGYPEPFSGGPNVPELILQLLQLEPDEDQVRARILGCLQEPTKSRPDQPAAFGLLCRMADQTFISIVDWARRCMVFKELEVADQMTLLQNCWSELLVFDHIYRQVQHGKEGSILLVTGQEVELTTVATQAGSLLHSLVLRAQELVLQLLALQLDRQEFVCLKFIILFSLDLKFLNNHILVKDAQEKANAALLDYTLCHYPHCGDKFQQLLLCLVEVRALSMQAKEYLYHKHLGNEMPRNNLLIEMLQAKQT
Sequence of Lysine-specific histone demethylase 2 (Q8NB78 whole entry): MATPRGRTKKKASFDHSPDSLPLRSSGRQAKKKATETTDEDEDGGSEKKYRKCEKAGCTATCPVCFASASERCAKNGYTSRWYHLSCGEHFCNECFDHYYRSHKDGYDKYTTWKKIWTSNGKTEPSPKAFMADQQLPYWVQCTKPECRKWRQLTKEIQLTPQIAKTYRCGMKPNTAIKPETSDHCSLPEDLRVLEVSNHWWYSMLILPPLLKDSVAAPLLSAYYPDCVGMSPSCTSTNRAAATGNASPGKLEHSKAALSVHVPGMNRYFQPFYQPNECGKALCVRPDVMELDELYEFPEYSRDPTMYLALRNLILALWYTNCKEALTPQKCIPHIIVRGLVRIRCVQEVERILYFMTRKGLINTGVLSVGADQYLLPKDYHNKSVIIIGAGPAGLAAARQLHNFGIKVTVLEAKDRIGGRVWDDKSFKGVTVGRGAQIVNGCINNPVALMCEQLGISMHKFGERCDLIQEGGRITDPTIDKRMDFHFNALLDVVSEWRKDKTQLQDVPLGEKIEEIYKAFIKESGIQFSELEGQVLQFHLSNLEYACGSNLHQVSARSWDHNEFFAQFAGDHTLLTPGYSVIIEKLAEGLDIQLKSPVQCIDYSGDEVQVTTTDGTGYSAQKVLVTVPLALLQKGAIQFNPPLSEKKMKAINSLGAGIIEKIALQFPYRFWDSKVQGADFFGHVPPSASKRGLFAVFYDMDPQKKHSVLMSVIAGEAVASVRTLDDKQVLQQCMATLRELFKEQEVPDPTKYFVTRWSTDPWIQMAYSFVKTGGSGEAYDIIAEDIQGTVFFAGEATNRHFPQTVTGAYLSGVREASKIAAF
Sequence of Bromodomain-containing protein 1 (Homo sapiens) (O95696 whole entry): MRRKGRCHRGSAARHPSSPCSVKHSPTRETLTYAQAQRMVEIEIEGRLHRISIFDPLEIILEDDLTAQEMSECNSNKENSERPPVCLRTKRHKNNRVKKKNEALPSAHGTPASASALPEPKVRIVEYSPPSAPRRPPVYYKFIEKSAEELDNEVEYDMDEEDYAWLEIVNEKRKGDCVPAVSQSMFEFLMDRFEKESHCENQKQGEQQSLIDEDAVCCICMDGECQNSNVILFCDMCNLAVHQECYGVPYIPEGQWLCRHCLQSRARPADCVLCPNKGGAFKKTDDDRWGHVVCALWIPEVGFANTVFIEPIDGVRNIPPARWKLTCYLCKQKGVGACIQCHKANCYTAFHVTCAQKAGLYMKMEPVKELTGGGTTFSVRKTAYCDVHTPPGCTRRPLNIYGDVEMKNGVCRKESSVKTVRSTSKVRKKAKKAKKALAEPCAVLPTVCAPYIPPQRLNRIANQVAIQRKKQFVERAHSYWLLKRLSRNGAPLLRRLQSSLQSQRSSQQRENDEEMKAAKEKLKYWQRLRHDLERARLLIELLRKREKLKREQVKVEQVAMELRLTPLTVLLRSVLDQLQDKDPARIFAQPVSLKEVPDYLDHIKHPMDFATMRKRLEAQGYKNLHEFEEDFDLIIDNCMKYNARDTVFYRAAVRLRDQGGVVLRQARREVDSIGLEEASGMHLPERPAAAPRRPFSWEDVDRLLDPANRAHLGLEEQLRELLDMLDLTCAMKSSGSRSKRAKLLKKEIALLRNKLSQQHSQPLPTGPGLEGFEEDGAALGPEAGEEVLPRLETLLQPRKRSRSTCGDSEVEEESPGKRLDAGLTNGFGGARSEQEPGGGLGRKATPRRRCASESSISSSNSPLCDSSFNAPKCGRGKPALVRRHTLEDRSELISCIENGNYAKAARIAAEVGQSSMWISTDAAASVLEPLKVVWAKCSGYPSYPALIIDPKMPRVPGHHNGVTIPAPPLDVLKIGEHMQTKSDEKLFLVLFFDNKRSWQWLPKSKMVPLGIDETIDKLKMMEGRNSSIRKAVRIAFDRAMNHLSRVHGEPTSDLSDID
Sequence of Bromodomain and PHD finger-containing protein 3 (Homo sapiens) (Q9ULD4 whole entry): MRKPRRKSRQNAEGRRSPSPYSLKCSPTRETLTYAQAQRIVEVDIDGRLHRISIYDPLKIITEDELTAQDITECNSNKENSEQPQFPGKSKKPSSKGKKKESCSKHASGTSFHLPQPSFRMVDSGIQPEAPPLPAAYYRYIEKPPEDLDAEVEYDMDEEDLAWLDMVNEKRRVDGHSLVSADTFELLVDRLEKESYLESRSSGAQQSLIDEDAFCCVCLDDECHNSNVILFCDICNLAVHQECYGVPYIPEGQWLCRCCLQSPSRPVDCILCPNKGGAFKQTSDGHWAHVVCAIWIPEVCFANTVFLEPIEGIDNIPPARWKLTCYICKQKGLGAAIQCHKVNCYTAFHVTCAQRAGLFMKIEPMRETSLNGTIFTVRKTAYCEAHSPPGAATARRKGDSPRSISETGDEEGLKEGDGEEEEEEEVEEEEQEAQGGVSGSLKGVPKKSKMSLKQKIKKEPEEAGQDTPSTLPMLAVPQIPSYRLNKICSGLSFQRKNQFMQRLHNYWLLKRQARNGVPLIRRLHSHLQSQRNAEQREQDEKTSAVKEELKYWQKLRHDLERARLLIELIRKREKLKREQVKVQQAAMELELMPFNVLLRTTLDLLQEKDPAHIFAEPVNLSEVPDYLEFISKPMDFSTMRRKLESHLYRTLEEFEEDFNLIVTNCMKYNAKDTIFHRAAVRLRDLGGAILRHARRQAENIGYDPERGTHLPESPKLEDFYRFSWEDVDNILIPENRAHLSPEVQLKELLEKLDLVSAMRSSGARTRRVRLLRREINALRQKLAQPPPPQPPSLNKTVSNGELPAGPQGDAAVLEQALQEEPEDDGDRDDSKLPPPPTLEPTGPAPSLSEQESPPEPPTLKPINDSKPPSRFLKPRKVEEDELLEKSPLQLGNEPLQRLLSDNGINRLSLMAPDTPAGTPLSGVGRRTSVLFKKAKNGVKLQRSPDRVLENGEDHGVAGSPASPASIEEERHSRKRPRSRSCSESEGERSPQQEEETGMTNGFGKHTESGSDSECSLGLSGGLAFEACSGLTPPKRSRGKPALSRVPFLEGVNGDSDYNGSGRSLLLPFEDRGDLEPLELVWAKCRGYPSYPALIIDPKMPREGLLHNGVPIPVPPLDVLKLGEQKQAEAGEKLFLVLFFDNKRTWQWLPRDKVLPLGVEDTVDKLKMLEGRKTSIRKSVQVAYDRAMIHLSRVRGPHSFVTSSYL

Structure (SMILES): O=c1[nH]c2ccccc2n1CCCN1CCN(C(c2ccccc2)c2ccccc2)CC1
- Fold activation [1]: 1.16
- Fold activation [2]: 0.803
- P-value [3]: 6e-08
- Remaining activity [4]: 1.07
- Relative activation [5]: 0.76%
- Fold activation [6]: 0.736
- Fold activation [7]: 0.661

Structure (SMILES): CC(C)c1c(CN(C)C(C)Cc2ccccc2)n(C)n(-c2ccccc2)c1=O (stereo not drawn)
- Fold activation [8]: 1.15
- Remaining activity [9]: 0.769
- P-value [10]: 0.00161
- Fold activation [11]: 1.13
- Remaining activity [12]: 0.96
- Relative activation [13]: 0.69%
- Fold activation [14]: 1.12

Structure (SMILES): CCCOc1cc(OCCCCN(C)C)cc(Oc2cc3c(cc2NS(=O)(=O)c2ccc(OC)c(OC)c2)n(C)c(=O)n3C)c1
- Control [15]: 0%
- Control [16]: 0%

Structure (SMILES): Cc1cc(CN)cc(C)c1-c1ncn(C)c1-c1ccnc2cc(F)ccc12
- IC50 [17]: > 100 µM
- IC50 [18]: > 1000 µM
